Tests used:
morningglory = experiment: Herbicidal activity, cyanamide and citric acid, pre-emergence, covered pots; format: in vivo, Ipomoea spp.
Protocol: The weeds used in these tests were grown from a standard weed seed pack of common annual and perennial weeds representing an extreme weed situation. The weeds included crabgrass (Digitaria sanguinalis), yellow nutsedge (Cyperus esculentus), […] (Ipomoea spp.), pigweed (Amaranthus spp.), and other annual weeds. Observations of the effects on the weed population as a whole were made, and individual observations were made for crabgrass, yellow nutsedge, sicklepod, morningglory, and pigweed. Stock solutions of hydrogen cyanamide at 1.25% by weight and citric acid at 5.0% by weight, both in water, were prepared, the hydrogen cyanamide from a phosphate-buffered 50% aqueous solution. […] Data analyses were performed in the same manner as Example 1. The results expressed in weeds per pot are listed in Table XIV for all weeds, Table XV for crabgrass, Table XVI for yellow nutsedge, Table XVII for sicklepod, Table XVIII for morningglory, and Table XIX for pigweed, all at various application rates for hydrogen cyanamide, with and without citric acid.

Dorylaimida nematodes = experiment: Effect on beneficial nematodes in covered pots of silt loam; format: in vivo
Protocol: In this study, the soil was naturally infested with four species of nematodes, two of which were deleterious and two beneficial, and observations were made of both the nematode survival and the growth of the soybean plants.
Stock solutions of hydrogen cyanamide at 1.0% by weight and propionic acid at 5.0% by weight, both in water, were prepared, the hydrogen cyanamide from a phosphate-buffered 50% aqueous solution. Planting pots measuring 10 cm in diameter, each containing 1 kg of soil, were used. The soil was silt loam from a cotton field, pH 6.2, CEC<10 meq/100 g soil, organic matter<1.0%. The treatment chemicals were combined in various dilutions such that 100 mL of the combined dilutions contained the desired amount of each chemical for each test. The combined dilutions were then applied to the soil surface in each pot, at 100 mL of combined dilution per pot. The dilutions were selected to achieve target application rates expressed in milligrams of the treatment chemical per kilogram of soil, with 1 milligram of treatment chemical per kilogram of soil being approximately equal to 2 kilograms of the chemical per hectare of soil or 2 pounds of the chemical per acre of soil.
Immediately after the treatment chemicals were applied, each pot was covered by a thick (1.5 mil), clear, low-density polyethylene bag. After twelve days, the bags were removed and soil samples were taken from each pot for nematological analysis by the salad bowl technique of Rodriguez-Kabana, R., and M. H. Pope, Nematropica, 11: 175-186 (1981). The results of these analyses are listed in Table I as pre-plant test results. The results for the two deleterious nematodes are also shown as plots of the number of nematodes vs. the hydrogen cyanamide application rate in FIGS. 1 and 2.
After the polyethylene bags were removed, each pot was planted with Hutcheson soybean seeds at 5 seeds per pot, and the seeds were allowed to germinate and the plants to grow for 45 days. The resulting plants were then removed from the pots, the root systems were washed, and the number of plants in each pot was determined. The weights of both fresh shoots and roots were also determined as well as the shoot height and the relative health of the root system, using a subjective index. Soil samples were also collected, and the soil and roots were incubated to determine nematode populations. Treatments were arranged in randomized complete block design with seven replications per treatment, and statistical evaluation of the data was performed with analyses of variance (ANOVA) and standard regression procedures. Fischer's Least Significant Difference at p 0.05 was calculated when appropriate. The results of these tests are listed as final test results in Tables II, III, and IV, with nematode populations in the soil listed in Table II, the nematode populations in the root systems in Table III, and the plant and root parameters of the soybean shoots in Table IV.

crabgrass = experiment: Herbicidal activity, cyanamide and propionic acid, pre-emergence, covered pots; format: in vivo, Digitaria sanguinalis
Protocol: The weeds used in these tests were grown from a standard weed seed pack of common annual and perennial weeds representing an extreme weed situation. The weeds included yellow nutsedge (Cyperus esculentus), crabgrass (Digitaria sanguinalis), pigweed (Amaranthus spp.), momingglory (Ipomoea spp.), sicklepod (Senna obtusifolia) and other annual weeds. Observations of the effects on the weed population as a whole were made, and individual observations were made for yellow nutsedge, crabgrass, and sicklepod. Stock solutions of hydrogen cyanamide at 1.25% by weight and propionic acid at 5.0% by weight, both in water, were prepared, the hydrogen cyanamide from a phosphate-buffered 50% aqueous solution. […] Data analyses were performed in the same manner as Example 1. The results expressed in weeds per pot are listed in Table V for all weeds, Table VI for yellow nutsedge, Table VII for crabgrass, and Table VIII for sicklepod, all at various application rates for both hydrogen cyanamide and propionic acid.

Q: What does the source list for `N#CN` [Cyanamide, hydrogen cyanamide]?
A: Weeds Per Pot: Morningglory (morningglory; 13 d after treatment, cyanamide 50 mg/kg soil): 0; Weeds Per Pot: Morningglory (morningglory; 13 d after treatment, cyanamide 100 mg/kg soil): 0; Weeds Per Pot: Morningglory (morningglory; 13 d after treatment, cyanamide 150 mg/kg soil): 0; Weeds Per Pot: Morningglory (morningglory; 13 d after treatment, cyanamide 200 mg/kg soil): 0; Weeds Per Pot: Morningglory (morningglory; 13 d after treatment, cyanamide 250 mg/kg soil): 0; Weeds Per Pot: Morningglory (morningglory; 19 d after treatment, cyanamide 50 mg/kg soil): 0; Weeds Per Pot: Morningglory (morningglory; 19 d after treatment, cyanamide 100 mg/kg soil): 0; Weeds Per Pot: Morningglory (morningglory; 19 d after treatment, cyanamide 150 mg/kg soil): 0; Weeds Per Pot: Morningglory (morningglory; 19 d after treatment, cyanamide 200 mg/kg soil): 0; Weeds Per Pot: Morningglory (morningglory; 19 d after treatment, cyanamide 250 mg/kg soil): 0; Weeds Per Pot: Morningglory (morningglory; 26 d after treatment, cyanamide 50 mg/kg soil): 1.6; Weeds Per Pot: Morningglory (morningglory; 26 d after treatment, cyanamide 100 mg/kg soil): 0.7; Weeds Per Pot: Morningglory (morningglory; 26 d after treatment, cyanamide 150 mg/kg soil): 0.4; Weeds Per Pot: Morningglory (morningglory; 26 d after treatment, cyanamide 200 mg/kg soil): 0.3; Weeds Per Pot: Morningglory (morningglory; 26 d after treatment, cyanamide 250 mg/kg soil): 0.1; Surviving Nematodes: Dorylaimida (Dorylaimida nematodes; 12 d after treatment, pre-plant, cyanamide 20 mg/kg soil): 24 per 100 mL of soil; Surviving Nematodes: Dorylaimida (Dorylaimida nematodes; 12 d after treatment, pre-plant, cyanamide 40 mg/kg soil): 20 per 100 mL of soil; Surviving Nematodes: Dorylaimida (Dorylaimida nematodes; 12 d after treatment, pre-plant, cyanamide 60 mg/kg soil): 5 per 100 mL of soil; Surviving Nematodes: Dorylaimida (Dorylaimida nematodes; 12 d after treatment, pre-plant, cyanamide 80 mg/kg soil): 6 per 100 mL of soil; Surviving Nematodes: Dorylaimida (Dorylaimida nematodes; 12 d after treatment, pre-plant, cyanamide 120 mg/kg soil): 0 per 100 mL of soil; Surviving Nematodes: Dorylaimida (Dorylaimida nematodes; 57 d after treatment, 45 d after planting, cyanamide 20 mg/kg soil): 9 per 100 mL of soil; Surviving Nematodes: Dorylaimida (Dorylaimida nematodes; 57 d after treatment, 45 d after planting, cyanamide 40 mg/kg soil): 8 per 100 mL of soil; Surviving Nematodes: Dorylaimida (Dorylaimida nematodes; 57 d after treatment, 45 d after planting, cyanamide 60 mg/kg soil): 4 per 100 mL of soil; Surviving Nematodes: Dorylaimida (Dorylaimida nematodes; 57 d after treatment, 45 d after planting, cyanamide 80 mg/kg soil): 5 per 100 mL of soil; Surviving Nematodes: Dorylaimida (Dorylaimida nematodes; 57 d after treatment, 45 d after planting, cyanamide 120 mg/kg soil): 0 per 100 mL of soil; Weeds Per Pot: Crabgrass (crabgrass; 8 d after treatment, cyanamide 75 mg/kg soil): 0; Weeds Per Pot: Crabgrass (crabgrass; 8 d after treatment, cyanamide 150 mg/kg soil): 0; Weeds Per Pot: Crabgrass (crabgrass; 14 d after treatment, cyanamide 75 mg/kg soil): 3.3; Weeds Per Pot: Crabgrass (crabgrass; 14 d after treatment, cyanamide 150 mg/kg soil): 0; Weeds Per Pot: Crabgrass (crabgrass; 20 d after treatment, cyanamide 75 mg/kg soil): 8.6; Weeds Per Pot: Crabgrass (crabgrass; 20 d after treatment, cyanamide 150 mg/kg soil): 3.7; Weeds Per Pot: Crabgrass (crabgrass; 27 d after treatment, cyanamide 75 mg/kg soil): 7.7; Weeds Per Pot: Crabgrass (crabgrass; 27 d after treatment, cyanamide 150 mg/kg soil): 4
